Assay results as given in a melting point compilation (Tetko et al.; mined from patent text by program, amines drawn as free bases though some values may be those of a salt).

SMILES	melting point [°C]
Cc1ccc(C#Cc2cnc(-c3ccc(C(F)(F)F)cc3)s2)s1	107 to 108
O=C(O)CCc1ccc(O)c([N+](=O)[O-])c1	80 to 82
CC(C)(C)C(=NO)C(C)(C)CCCCCCC(C)(C)C(=NO)C(C)(C)C	203 to 209
O=C(c1ccc2c(c1)OCC(CN1CCOCC1)N2)N1CCOCC1 (stereo unspecified)	125 to 126
CC(C)(C)C(=O)Nc1onc2c1CCC2	113
CCOC(=O)c1cnc2c(SC(=O)N3CCN(Cc4ccc5c(c4)OCO5)CC3)cccn2c1=O	159 to 161
Cc1cccc2c1C(=O)N(C)Cc1c(-c3noc(C4CC4)n3)ncn1-2	200
CCOC(=O)C(C)(C(=O)OCC)C(=O)c1cc([N+](=O)[O-])cc(Br)c1Cl	75 to 76.5
O=C1NC(C(Cl)(Cl)Cl)Oc2ccccc21 (stereo unspecified)	175 to 177
O=C(Nc1nc(C(Cl)(Cl)Cl)ns1)c1ccc(Cl)cc1Cl	136
O=c1c2cc(O)c(O)cc2c2cc(O)c(O)cc2n1Cc1ccc(Cl)c(Cl)c1	318
Cc1noc(NS(=O)(=O)c2cc(Cl)sc2Cl)c1Br	135 to 138
CC(C)(O)CC(=O)N[C@H]1CC[C@H](CCN2CCN(c3nccc4c3OCC4)CC2)CC1	139
Cc1nn(C)c(C)c1Nc1ccc([N+](=O)[O-])cc1[N+](=O)[O-]	153
OC(c1ccc(C(F)(F)F)cc1)c1ccc(C(F)(F)F)cc1	80
CCOC(CCOc1cc(Cc2cnc(N)nc2N)cc(OC)c1OC)OCC	105 to 106
OC(c1cc(F)ccc1F)c1cc(Cl)ncc1Cl (stereo unspecified)	160 to 161
Cc1cc2c(c(O)c1C=O)C(C)(C)CCC2(C)C	91 to 92

SMILES	melting point [°C]
CCCC1=C(Cl)C(=O)c2oc(Cc3ccc(OC)c(Cl)c3)c(C)c2C1=O	134 to 136
CCCCCCCCCCCCCCn1nnc(NC(=O)Nc2c(C(C)C)cccc2C(C)C)n1	112 to 114
Cc1cccc(NC(=O)NC2N=C(c3ccccc3F)c3ccccc3N(Cc3csc4ccccc34)C2=O)c1 (racemic)	214 to 216
O=S1(=O)CCON=C1c1ccc(Cl)s1	113 to 114
CCOC(=O)c1cc(C#N)c(=O)[nH]c1C	208 to 210
CN1CCN(C2=C3CN(C)CC34CC(=CC#N)C=CC4=NC=C2)CC1 (stereo unspecified)	178 to 180
CCc1nn2ccc3c(c2c1C(C)C#N)CCO3 (stereo unspecified)	86 to 88
O=C(O)c1ncncc1Br	200
COC(=O)C1=NC2=COc3cc(C)c(Cl)cc3N2C1C(=O)O (stereo unspecified)	240 to 244
CC1(C)C(=O)Nc2cc(O)c([N+](=O)[O-])cc21	244 to 247
COCC1CN(c2cccnc2)C(=O)O1 (racemic)	65 to 66
CC(C)(C)OC(=O)N[C@H]1CCC(=O)C1	97 to 98
CN1Cc2c(C(=O)NN)ncn2-c2ccccc2C1=O	312 to 313
CC1(CBr)OC(C(Br)(Br)Br)OC1=O (stereo unspecified)	110 to 113
COc1cc(C(=O)ON=C(C)N)cc([N+](=O)[O-])c1OC	165 to 166
O=C1Nc2cccc(Cl)c2C(=O)N2CC[C@@H]12	225 to 228
COc1ccnc(CS(=O)c2nc3cc4c(cc3[nH]2)OC(F)(F)C(F)(Cl)O4)c1 (stereo unspecified)	179 to 181

More lines, now with the values ahead:

melting point [°C]	SMILES
130 to 131	CCOC(=O)CNC(=O)[C@@H]1CS[C@H](c2ccccc2O)N1C(=O)CCSC(C)=O
120 to 150	Cc1cccc(C)c1C(=O)n1cc(F)c(N=CN(C)C)nc1=O
152 to 153	Clc1ccc2c(c1)N=C(NCc1cccnc1)c1ccccc1S2
116 to 118	CC1(C2=C(O)C(=O)c3ccccc3C2=O)CCCC1
241 to 243	COc1cc2cc3c(ccc4cc(Cl)ccc43)nc2cc1OC
78 to 80	Cc1cnccc1Nn1ccc2ccccc21
145 to 148	CC(C)OC(=O)N1CCC(c2ccc3oc(-c4ccc(C(F)(F)F)cc4)nc3c2)CC1
213 to 214	O=c1c(CCc2ccncc2)cc2cccnc2n1-c1cccc([N+](=O)[O-])c1
> 300	CN1CCN(c2ccc(N/C=C3\C(=O)NC(=O)c4ccc(C(=O)N(C)C)cc43)cc2)CC1
187	CC(C)(C)c1cc(CCc2ccccc2NC(=O)NC(c2ccccc2)c2ccccc2)cc(C(C)(C)C)c1O
176	Fc1ccc(Cn2c(NC3CCN(CCNC(=S)N4CCCCC4)CC3)nc3ccccc32)cc1
184 to 186	Cc1nc(N2CCN(Cc3ccc(OC(F)(F)F)cc3)C2=O)sc1C(=O)NCC1CC1
66 to 68	CC(C)COC(NC(=O)OCc1ccccc1)C(=O)O (stereo unspecified)
237	O=C(O)CC1CCCc2c(n(Cc3ccc(-n4ccnc4)cc3)c3ccc(F)cc23)C1 (stereo unspecified)
95 to 97	CCCCOCCOc1ccc(-c2ccc(N(C)CCC)c(C=CC(=O)O)c2)cc1
163	COc1ccc(N2C(=O)[C@@H](OC(C)=O)[C@H]2c2ccccc2)cc1 (relative stereo)
168 to 170	O=C(c1ccc(F)cc1)C1CCN(C(=O)c2ccc([N+](=O)[O-])cc2)CC1
119 to 120	CCN(CC)CCOCCC1CCN(C(=O)N2c3ccccc3C(=O)Nc3cccnc32)CC1

melting point [°C]	SMILES
165	O=C(O)CSc1c(Cl)cc2c(-c3ccccc3F)noc2c1Cl
205	COc1ccc2oc(C(N)=O)c(-c3nnn[nH]3)c2c1
204 to 206	COc1ccc(S(=O)(=O)Nc2cccc(C)c2NC(=O)c2ccc(F)cc2)cc1
211 to 212	Cc1nc(-c2ccc(Br)cc2)n(-c2ccc(S(C)(=O)=O)cn2)n1
151 to 152	O=C(CO)NCc1ccc2ccn(C3CCN(CCc4ccccc4F)CC3)c2c1
188 to 189	COc1cc(OC)c2c(=O)[nH]c(-c3cccc(N4CCN(CC(C)C)CC4)n3)nc2c1
229 to 230	COc1c(-c2ccc3cc(NS(C)(=O)=O)ccc3c2)cc(N2CCCC2=O)cc1C(C)(C)C
163 to 164	Cc1oncc1C(=O)N1CCC[C@H](c2nc(-c3cc4ccccc4[nH]3)no2)C1
161 to 162	Nc1cccc2c1C(=O)N(c1ccc(OC(F)(F)F)cc1)C2=O
146 to 147	CN(Cc1ccccc1)c1cc(-c2nc(=O)c3ccccc3s2)ccn1
99 to 101	COc1ccc2cc(C(=O)C34CC5CC(CC(C5)C3)C4)oc2c1
162 to 163	COc1ccc(NC(=NC#N)NC(NC(=O)c2ccc(Cl)cc2)C(C)(Cl)Cl)c(OC)n1 (stereo unspecified)
110 to 113	CCCCNC(=O)NS(=O)(=O)c1ccccc1-c1ccno1
154 to 155	COc1ccc(N2CCN(c3c(C)c(C)c4c(c3C)C(O)(c3cccs3)C(C)(C)O4)CC2)cc1 (stereo unspecified)
> 300	O=C(O)c1cn(-c2ccc(O)cc2)c2c(F)c(F)c(F)cc2c1=O
204 to 206	O=C(O)c1ccc(Cc2ccc(-c3ccccc3-c3nnn[nH]3)cc2)c2[nH]c(OCC(F)(F)F)nc12
58 to 59	COc1ccc(CCCCCCCSc2ccccc2)cc1
75	ClC(c1ccccc1)c1ccc(C2CCCCC2)cc1 (stereo unspecified)
